Results as given in PubChem BioAssay AID652076 (The Scripps Research Institute Molecular Screening Center, 2013).
Calls of active or inactive are those of the source. No rule for the calls is given here.

Target: Cytochrome P450 1A2 (Homo sapiens) (UniProt P05177)
Test: CYP1A2 enzyme inhibition, late-stage follow-up, biochemical (AID 652076)
Details: Human CYP inhibition panel, LC-MS/MS marker substrate metabolism

Cytochrome P450 1A2 (Homo sapiens), sequence (P05177 whole entry, looked up): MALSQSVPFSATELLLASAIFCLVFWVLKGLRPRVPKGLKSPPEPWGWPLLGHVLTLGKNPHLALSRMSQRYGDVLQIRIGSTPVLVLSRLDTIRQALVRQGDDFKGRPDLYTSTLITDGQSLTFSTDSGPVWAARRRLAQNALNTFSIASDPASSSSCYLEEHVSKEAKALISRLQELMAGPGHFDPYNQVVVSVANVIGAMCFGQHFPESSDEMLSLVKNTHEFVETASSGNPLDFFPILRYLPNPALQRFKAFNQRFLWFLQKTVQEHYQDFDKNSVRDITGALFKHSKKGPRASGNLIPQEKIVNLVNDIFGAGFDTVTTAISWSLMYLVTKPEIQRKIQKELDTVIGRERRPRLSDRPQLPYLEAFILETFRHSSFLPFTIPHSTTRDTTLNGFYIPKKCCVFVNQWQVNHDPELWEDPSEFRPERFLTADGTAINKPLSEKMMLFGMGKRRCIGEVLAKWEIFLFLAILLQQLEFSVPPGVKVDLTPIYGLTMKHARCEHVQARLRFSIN

Structure (SMILES): COC(=O)c1cc(Br)cnc1N1CCC(NC2CCCCC2)C(O)C1 (configuration not stated)
- outcome: active
- inhibition (CYP1A2, at 10 µM, active compounds read high): -9%
